Results: patent publication US6908935B2, “Calcium receptor modulating agents” (Amgen Inc., priority 2002, dated 2005)

Target: T1, human parathyroid cell Ca^2+ receptor (hPCaR) (Homo sapiens, UniProt P41180)
T1 construct: expressed in transfected cells
T1 sequence (P41180 20-1078): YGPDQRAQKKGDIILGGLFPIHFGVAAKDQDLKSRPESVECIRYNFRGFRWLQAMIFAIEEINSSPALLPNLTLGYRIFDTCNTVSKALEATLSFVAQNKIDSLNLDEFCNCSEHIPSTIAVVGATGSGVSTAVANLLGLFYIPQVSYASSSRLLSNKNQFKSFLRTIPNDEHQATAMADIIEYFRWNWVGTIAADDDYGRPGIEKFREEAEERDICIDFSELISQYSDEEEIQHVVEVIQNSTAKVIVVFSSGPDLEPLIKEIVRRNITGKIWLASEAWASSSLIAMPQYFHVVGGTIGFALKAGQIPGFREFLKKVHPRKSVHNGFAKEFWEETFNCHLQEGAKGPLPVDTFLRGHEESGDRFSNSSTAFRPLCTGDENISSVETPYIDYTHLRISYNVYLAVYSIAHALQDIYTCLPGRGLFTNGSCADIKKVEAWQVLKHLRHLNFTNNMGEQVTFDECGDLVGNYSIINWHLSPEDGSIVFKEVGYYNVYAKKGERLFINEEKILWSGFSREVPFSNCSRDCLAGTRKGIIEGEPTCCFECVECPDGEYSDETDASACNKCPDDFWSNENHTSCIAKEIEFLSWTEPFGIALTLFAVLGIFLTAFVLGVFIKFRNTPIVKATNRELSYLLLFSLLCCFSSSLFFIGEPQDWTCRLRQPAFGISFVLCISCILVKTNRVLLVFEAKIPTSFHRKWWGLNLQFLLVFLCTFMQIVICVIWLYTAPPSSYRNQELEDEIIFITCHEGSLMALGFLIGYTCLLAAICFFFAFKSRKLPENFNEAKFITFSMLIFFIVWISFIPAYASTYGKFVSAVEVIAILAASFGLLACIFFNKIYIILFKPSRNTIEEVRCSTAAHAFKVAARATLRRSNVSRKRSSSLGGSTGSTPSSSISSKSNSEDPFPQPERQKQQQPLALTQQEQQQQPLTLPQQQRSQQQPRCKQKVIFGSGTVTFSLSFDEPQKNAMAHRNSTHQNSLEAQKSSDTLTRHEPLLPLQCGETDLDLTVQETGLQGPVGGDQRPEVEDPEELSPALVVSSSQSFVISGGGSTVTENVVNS
Test: [Ca2+]i measurement with fluo-3 in HEK 293 4.0-7 cells stably transfected with hPCaR
Assay type: cell-based
Settings: fluo-3 fluorescence (485/530 nm), effect on [Ca^2+]i
Procedure, shortened: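 Cytosolic [Ca2+] was read as fluo-3 fluorescence (ex 485/em 530 nm) after compound addition to washed cells. Cells were hPCaR-transfected HEK 293 clone 7, dye-loaded 30 min at 37 °C with 2 μM fluo-3 acetoxymethyl ester in HEPES-buffered saline pH 7.45 containing 1 mM CaCl2 and 0.5% BSA.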

EC50, ≤ 10 µM:
CCOC(=O)N1CC=C(c2cc(CN[C@H](C)c3cccc4ccccc34)ccc2OC)CC1 [ethyl 4-(2-(methyloxy)-5-((((1R)-1-(1-naphthalenyl)ethyl)amino)methyl)phenyl)-3,6-dihydro-1(2H)-pyridinecarboxylate], CCOC(=O)N1CCC(c2cc(CN[C@H](C)c3cccc(OC)c3)ccc2OC)CC1 [ethyl 4-(2-(methyloxy)-5-((((1R)-1-(3-(methyloxy)phenyl)ethyl)amino)methyl)phenyl)-1-piperidinecarboxylate], CCOC(=O)N1CCC(c2cc(CN[C@H](C)c3ccccc3)ccc2OC)CC1 [ethyl 4-(2-(methyloxy)-5-((((1R)-1-phenylethyl)amino)methyl)phenyl)-1-piperidinecarboxylate]
